This passage reports herbicidal activity results from patent publication US20230309556A1, “HERBICIDAL COMPOSITIONS RELATED TO OXALOACETATE AND METHODS AND USE THEREOF” (priority 2021, published 2023).

In this experiment the test system is plants. Kind of experiment: general screening of the herbicidal effect. The format is in vivo. The following applies: 10% w/w; compared with Roundup RTU and Bayer Advanced at 10% and 100% Label Rate; results shown in FIG. 1. Here is the method:
A general screening of the herbicidal effect of the following compounds was carried out: Bayer Advanced (100% Label Rate), Bayer Advanced (10% Lable Rate), UTC, Diethyl Oxalacetate (10% w/w), Roundup, rtu (10% Label Rate) and Roundup RTU (100% Label Rate).

SMILES strings stand for the structures.

As to `CCOC(=O)CC(=O)C(=O)OCC` [Diethyl Oxalacetate], the herbicidal activity entry was “comparable to well-known herbicide products such as Roundup and Bayer Advanced”.
